Literature values in patent publication US20020082306A1, “Aqueous formulation of beta carotene” (Sanochemia Pharmazeutika Aktiengesellschaft, priority 1998, published 2002).

Columns and labels:
[1] = in the presence of light and heat

solubility in cyclohexane (cyclohexane): hardly soluble
solubility in ethanol (ethanol): hardly soluble
solubility in ether (ether): hardly soluble
solubility in water (water as well as the usually employed aqueous formulations): practically insoluble
decomposition of dissolved beta-carotene by oxygen from ambient air [1]: easily decomposed
Compound: CC1=C(/C=C/C(C)=C/C=C/C(C)=C/C=C/C=C(C)/C=C/C=C(C)/C=C/C2=C(C)CCCC2(C)C)C(C)(C)CCC1 [Beta-carotene, beta-carotene]
